Source: patent publication US10966968B2 (Amarin Pharmaceuticals Ireland Limited, priority 2013, dated 2021)

Key:
[1] = independent of dose; cited from earlier work
[2] = Safety evaluation in the drug-drug interaction study (adverse events, laboratory, vital signs); format: in vivo, human; conditions: rosiglitazone 8 mg with ethyl eicosapentaenoate 4 g/day, healthy subjects
From the text: Safety evaluations consisted of monitoring adverse events (AEs), clinical laboratory measurements (chemistry, hematology, and urinalysis), vital signs (systolic and diastolic blood pressure, heart rate, respiratory rate and oral body temperature), and physical examination findings.

[3] = Phase 1 open-label crossover drug-drug interaction study: rosiglitazone plasma pharmacokinetics without and with ethyl eicosapentaenoate
Method: Eligibility assessments and clinical laboratory testing were performed within a 28-day screening period. All eligible subjects received the same treatment. […] On days 12-29, subjects received oral doses of 4 g icosapent ethyl (2 liquid-filled 1 g gelatin capsules) twice daily, with or following the morning and evening meals. All study drugs were taken with 240 mL water. Rosiglitazone was administered by study personnel at the research unit, and thus compliance calculations were not necessary. icosapent ethyl was either administered by study personnel during scheduled visits or self-administered by subjects while away from the study site. Compliance to icosapent ethyl (days 12-29) was evaluated by counting and reconciling unused capsules against subject diaries and was calculated as: (used capsules/total dosing days×4)×100.
Doses selected for study were based on established PK profiles of both agents.
Eligible subjects were healthy nonsmoking men and women between the ages of 19 and 55 years with a body mass index >18 and ≤35 kg/m^2 and in good health as determined by medical history and medical examination. Women who were pregnant, nursing, or planning a pregnancy were excluded; female subjects of childbearing potential were required to use an acceptable method of birth control. Subjects were prohibited from ingesting medications and supplements that contained EPA and/or docosahexaenoic acid (DHA), fish meals, foods fortified with EPA and/or DHA, lipid-medications and dietary supplements with known or potential lipid-altering effects including statins, niacin >200 mg/day, fibrates, ezetimibe, and bile acid sequestrants or medications or supplements that may influence the measurements of EPA concentrations in plasma until after the last PK sample collection.

CYP2C8 = biological target: T1, CYP2C8 (Homo sapiens, UniProt P10632); assay: Effect of ethyl eicosapentaenoate on metabolism/exposure of rosiglitazone (CYP2C8 substrate) in the drug-drug interaction study; format: in vivo; conditions: at steady state, 4 g/day, healthy subjects
T1 construct: from tissue; host or cells: living healthy human subjects (in vivo; endogenous enzyme)
T1 sequence (P10632 1-490): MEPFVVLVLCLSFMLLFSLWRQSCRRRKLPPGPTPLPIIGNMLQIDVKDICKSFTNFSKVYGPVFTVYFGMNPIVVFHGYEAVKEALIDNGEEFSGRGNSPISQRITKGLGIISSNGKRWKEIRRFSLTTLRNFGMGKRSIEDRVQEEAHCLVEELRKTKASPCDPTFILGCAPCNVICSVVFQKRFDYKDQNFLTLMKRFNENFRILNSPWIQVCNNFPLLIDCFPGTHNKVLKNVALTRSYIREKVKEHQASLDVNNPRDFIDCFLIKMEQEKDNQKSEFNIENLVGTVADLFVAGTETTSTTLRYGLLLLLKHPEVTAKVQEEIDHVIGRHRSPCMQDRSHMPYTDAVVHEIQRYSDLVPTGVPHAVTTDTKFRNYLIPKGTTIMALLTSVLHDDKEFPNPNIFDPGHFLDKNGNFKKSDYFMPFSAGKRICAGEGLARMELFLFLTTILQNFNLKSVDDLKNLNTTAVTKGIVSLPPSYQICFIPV
From the text: Nonparametric statistics included median and data range (minimum-maximum).

[4] = both, human, plasma, oral, 8 mg

CN(CCOc1ccc(CC2SC(=O)NC2=O)cc1)c1ccccn1 (centres unmarked) [Rosiglitazone, rosiglitazone]
elimination half-life [1]: 3 to 4 h | safety and tolerability of concomitant administration [2]: safe and well-tolerated | serious adverse events [2]: No serious adverse events | Tmax ([3]; both, human, plasma, oral): 0.8 h | half-life ([3]; both, human, plasma, oral): 4.1 h | AUC(0-t) [3, 4]: 3150 ng·h/mL | Tmax [3, 4]: 0.8 h | half-life [3, 4]: 4.4 h | Cmax ([3]; both, human, plasma, oral, 8 mg, Cmax, rosiglitazone 8 mg alone, mean (SD)): 672 ng/mL | AUC(0-inf) ([3]; both, human, plasma, oral, 8 mg, LSGM AUC0-inf, rosiglitazone alone, least squares geometric mean from mixed models): 3150 ng·h/mL | Cmax ([3]; both, human, plasma, oral, 8 mg, LSGM Cmax, rosiglitazone alone, least squares geometric mean from mixed models): 647 ng/mL | AUC(0-inf) ([3]; both, human, plasma, oral, AUC0-inf, rosiglitazone 8 mg with EPA 4 g (day 29), healthy subjects, plasma, mean (SD)): 2920 ng·h/mL | Cmax ([3]; both, human, plasma, oral, Cmax, rosiglitazone 8 mg with EPA 4 g, mean (SD)): 673 ng/mL | AUC(0-inf) ([3]; both, human, plasma, oral, LSGM AUC0-inf, rosiglitazone + EPA, least squares geometric mean from mixed models): 2840 ng·h/mL | Cmax ([3]; both, human, plasma, oral, LSGM Cmax, rosiglitazone + EPA, least squares geometric mean from mixed models): 650 ng/mL | AUC(0-inf) ([3]; both, human, plasma, po, 8 mg, AUC0-inf, rosiglitazone 8 mg single oral dose alone (day 11), healthy subjects, plasma, mean (SD)): 3230 ng·h/mL | Kel ([3]; rosiglitazone 8 mg alone, mean (SD)): 0.16 (0.02) 1/h | Kel ([3]; rosiglitazone 8 mg with EPA 4 g, mean (SD)): 0.17 (0.03) 1/h | difference in AUC0-inf and Cmax, alone compared to co-administration with ethyl eicosapentaenoate ([3]; rosiglitazone 8 mg, ethyl eicosapentaenoate 4 g/day): no significant difference

CC/C=C\C/C=C\C/C=C\C/C=C\C/C=C\CCCC(=O)OCC [ethyl eicosapentaenoate, all-cis eicosa-5,8,11,14,17-pentaenoic acid ethyl ester]
safety and tolerability of concomitant administration [2]: safe and well-tolerated | serious adverse events [2]: No serious adverse events | exposure changes of rosiglitazone when administered concomitantly (CYP2C8): no clinically relevant exposure changes | inhibition of the metabolism of rosiglitazone (CYP2C8): does not inhibit
